The source of these data is patent publication US6147107A, “Specific inhibition of the P42/44 mitogen activated protein (map) kinase cascade sensitizes tumor cells” (priority 1998, dated 2000).

The test system of test [1] is MEK1 and MEK2. Particulars: general statement on known inhibitors; cited from earlier work.
A further test relates to cancer cells. The test is described as follows: Radiosensitization of cancer cells. In kind it is cell-based. Particulars: general statement.
Test [2] relates to MEK1 and MEK2. Description: Inhibition of Raf-mediated phosphorylation/activation of MEK1/2. The conditions noted are these: for inhibition of MEK1 and MEK2: general statement; for inhibition of Raf phosphorylation of MEK1 and MEK2: stated as demonstrated by the applicant. Type of test: biochemical.
Test [3] deals with A431 cells. The test is described as follows: TUNEL assay, apoptosis of A431 cells after radiation. The conditions noted are these: 2 μM inhibitor + 2 Gy, 24 hours. Type of test: cell-based, human. On the procedure: The ability of the cells to survive was assessed using TUNEL assays 24 hours after irradiation and the results are depicted in FIG. 4.
The subject of a further test is primary hepatocytes. Description: TUNEL assay, primary hepatocytes after radiation. Type of test: cell-based. The conditions noted are these: SL327 (2 μM) + 2×2 Gy, 12 hours. Here is the method:
(§1) Experimental cells were exposed to radiation (2×2 Gy), or treated with the p42/44 MAP kinase inhibitory drug SL327 (2 μM), or treated with SL327 and exposed to radiation. Twelve hours after the final irradiation, cells were assessed by the TUNEL assay.
(§2) This is highly relevant because the neoplastic cells which are targeted for destruction by radiation therapy are rapidly proliferating, in contrast to most normal slowly growing somatic cells. Primary hepatocytes (representing slow growing "normal" cells) and HepG2 hepatoma cells derived from a cancerous cell line were cultured under identical conditions. Control cells of both types were left untreated. Matched samples of both cell types were treated with the p42/44 MAP kinase cascade inhibitory drug SL327, or exposed to radiation (2×2 Gy), or treated with SL327 and exposed to radiation. Twelve hours after the final irradiation, cells were processed and the number of dead (apoptoic) cells was determined by the TUNEL assay. […] Furthermore, the effect is specific for rapidly growing cells.

The test system of another test is HepG2 hepatoma cells. Description: TUNEL assay, HepG2 hepatoma cells after radiation. Particulars: SL327 (2 μM) + 2×2 Gy, 12 hours. In kind it is cell-based. On the procedure:
as §1, §2

The test system of test [4] is A431 cells.
The subject of test [5] is MDA-MB-231 mammary cancer cells. On the procedure: To further extend these investigations, the efficacy of U0126 was tested in the mammary cancer cell line MDA-MB-23 1. As described in the previous experiment, cells were exposed to 2 μM U0126 alone, radiation (3×2 Gy) alone, or to the combination of U0126 plus radiation. Control cells were treated with vehicle alone.

The test system of another test is p42/44 MAP kinase. The test is described as follows: MAP kinase activity in HL-60 cells (immunoprecipitation, MBP substrate). In kind it is cell-based, human. The conditions noted are these: ara-C. Here is the method: FIG. 8. […] HL-60 cells were exposed to ara-C (10 μM) in the absence or presence of aminomethoxyflavone (PD98059; 2.5 μM) for 3 hours. MAP kinase activity (p42-ERK1/p44-ERK2) was determined by in vitro assay. In each case, values reflect the mean ±SE of duplicate determinations, and are expressed as a percentage of basal activity present in untreated controls.
Determination of MAPK Activity: Pelleted cells were rinsed in PBS, repelleted, and flash-frozen. Cell pellets were lysed in 25 mM Hepes, pH 7.4 containing 5 mM EGTA, 5 mM EDTA, supplemented with protease inhibitors (5 mM benzamidine, 1 mM phenylmethylsulfonylfluoride, 1 mg/ml soybean trypsin inhibitor, 40 μg/ml aprotinin, 1 μM microcystin LR) phosphatase inhibitors (0.5 mM trisodium orthovanadate, 0.5 mM tetrasodium pyrophosphate), and containing 0.056% sodium deoxycholate w/v, 1% Triton X-100 v/v, and 0.1% 2-mercaptoethanol v/v. Lysates were clarified by centrifugation at 5,000× g at 4° C. for 5 min. MAPK activity was assayed using MBP as a substrate following immunoprecipitation of p42/44 MAP kinase with protein A/agarose-conjugated antibody/antisera. Preimmune controls were also run to ensure selectivity of substrate phosphorylation. Reaction mixtures consisted of immunoprecipitated enzyme, substrate, and [γ-^32 P] ATP ([…]) in 25 mM Hepes, pH 7.4 containing 15 mM MgCl2, […], 0.01% (v/v) 2-mercaptoethanol, 1 μM […]. Reactions were initiated by the addition of substrate. MAPK reactions were terminated by transfer to p81 filter paper; filters were rinsed repeatedly in 185 mM orhtophosphoric acid, and then dehydrated in acetone. Total radioactivity in filters was determined by liquid scintillometry.
HL-60 cells were exposed to ara-C in the absence or presence of PD98059. Following this treatment, the cells were eveluated for MAP kinase activity, DNA strand breakage, clonogenicity potential and extent of apoptosis.

Test [6] concerns HL-60 cells. The test is described as follows: Clonogenicity of HL-60 cells. Type of test: cell-based, human. The conditions noted are these: either agent alone. On the procedure: FIGS. 9a and 9b. […] HL-60 cells were exposed to ara-C (10 μM) in the absence or presence of aminomethoxyflavone (PD98059; 2.5 μM) for 6 hours. Apoptotic DNA damage and cell death were assessed as described in Methods. […] FIG. 9b.
Determination of Clonogenicity: Pelleted cells were rinsed extensively and prepared for soft-agar cloning. Cells were resuspended in cold PBS and seeded in 35-mm culture plates at a fixed density (400 cell/ml/well) in complete RPMI-1640 medium containing 20% fetal calf serum, 10% 5637-CM, and 0.3% Bacto agar. Cultures were mainatined for 10 to 12 days before formation of colonies (defined as groups of ≥50 cells) was scored.

Test [7] concerns HL-60 cells. Description: Taxol-mediated apoptosis of HL-60 cells. The conditions noted are these: Homo sapiens, HL-60, 6 h, read-out: cell death, taxol alone.

For the compound `O=C(NOCC1CC1)c1ccc(F)c(F)c1Nc1ccc(I)cc1Cl` [PD184352], in the test with MEK1 and MEK2 [1], the “mode of action at MEK1/2” value is “bind to MEK1/2 and sterically prevent Raf from binding”.

With `N#C/C(=C(/N)Sc1ccc(N)cc1)c1ccccc1C(F)(F)F` [SL327], in the test with MEK1 and MEK2 [1], the “mode of action at MEK1/2” value is “bind to MEK1/2 and sterically prevent Raf from binding”. Besides, in the test with cancer cells, the “radiosensitization of cancer cells” value is “all cause radiosensitization of cancer cells”. Further, in the test on MEK1 and MEK2 [2], the “inhibition of MEK1 and MEK2” value is “all inhibit MEK1 and MEK2”; the “inhibition of Raf phosphorylation of MEK1 and MEK2” value is “inhibiting the ability of Raf protein kinases to phosphorylate MEK1 and MEK2”. Moreover, the “percentage of apoptotic cells (TUNEL)” value in the test with A431 cells [3] is reported as “dramatic increase in the percentage of apoptotic cells”. For the same compound, in the test with primary hepatocytes, the “response to combined drug/radiation therapy (TUNEL)” value was “fairly resistant”. In addition, in the test with HepG2 hepatoma cells, the “increase in cell killing compared to radiation alone” value is listed as “approximately 2.5 fold” and the “response to combined drug/radiation treatment (TUNEL)” value was “effectively killed”.

Consider `N#CC(=C(N)Sc1ccccc1N)C(C#N)=C(N)Sc1ccccc1N` [U0126, 1,4-diamino-2,3-dicyano-1,4-bis[2-aminophenylthio]butadiene], for which the “mode of action at MEK1/2” value in the test on MEK1 and MEK2 [1] is “bind to MEK1/2 and sterically prevent Raf from binding”. Further, the “radiosensitization of cancer cells” value in the test with cancer cells was “all cause radiosensitization of cancer cells”. For the same compound, in the test on MEK1 and MEK2 [2], the “inhibition of MEK1 and MEK2” value is “all inhibit MEK1 and MEK2”; the “inhibition of Raf phosphorylation of MEK1 and MEK2” value is “inhibiting the ability of Raf protein kinases to phosphorylate MEK1 and MEK2”. In addition, the “abolishing cellular proliferation versus U0126 alone or irradiation alone (MTT)” value with A431 cells [4] (2 μM U0126 + 3×2 Gy) is “markedly more effective”. In the test with A431 cells [4] (2 μM U0126 alone or with 3×2 Gy, 4-8 days), the “proliferative rate (MTT)” value is given as “Decreased proliferative rate”. The “decreasing cellular proliferative potential versus either treatment alone (MTT)” value in test [5] (2 μM U0126 + 3×2 Gy) is “far more effective”. In addition, the “proliferative rate (MTT)” value in test [5] (2 μM U0126 alone or with 3×2 Gy, 3-4 days) is recorded as “Decreased proliferative rate”. For the same compound, the “percentage of apoptotic cells (TUNEL)” value in the test with A431 cells [3] is given as “dramatic increase in the percentage of apoptotic cells”.

Consider `Cl.Nc1ccn([C@@H]2O[C@H](CO)[C@@H](O)[C@@H]2O)c(=O)n1` [ara-C, 1-[β-D-arabinofuranosyl] cytosine hydrochloride], for which the “MAP kinase activity, effect of ara-C” value in the test on p42/44 MAP kinase is on record as “stimulation of MAP kinase”. For the same compound, in the test with HL-60 cells [6], the “clonogenic potential, single agent” value is reported as “neither alone had this effect”.

Turning to `CC(=O)O[C@H]1C(=O)[C@@]2(C)[C@H]([C@H](OC(=O)c3ccccc3)[C@]3(O)C[C@H](OC(=O)[C@H](O)[C@@H](NC(=O)c4ccccc4)c4ccccc4)C(C)=C1C3(C)C)[C@]1(OC(C)=O)CO[C@@H]1C[C@@H]2O` [taxol], the cytotoxicity at 0.5 µM with HL-60 cells [7] was about 27%.
